# Counter-ions that a name gives are not always drawn.
# System: albino rats
# Assay: Rat hair growth trial (plucked hair at end of G-2 anagen after topical application)
# Format: in vivo
# Settings: for LENGTH (length of hair) / WT/AREA (weight of hair per unit area of skin): G-2 anagen, topical twice daily, 6 rats per group, TBC 5% by weight in vanishing cream base, minoxidil 2% by weight in 65% v/v aqueous ethanol
# Description: The effect of esters of citric acid on hair growth was assessed using albino rats as an animal model. The rats were chosen from as few litters as possible and were each approximately 27-30 days of age at the start of the trial. Each rat was housed individually to prevent licking.
# In each comparison, 6 rats were used in each group and hair growth was assessed as follows: A small patch of normal skin (3cm x 3cm) on the upper back of each rat was selected and hairs were plucked from this area at the start of the trial (G-1 telogen). Test materials or control in a vanishing cream base or an alcoholic lotion, as appropriate, were then applied twice daily until the end of the next anagen, i.e. after a further 20 days from the start of trial (G-2 anagen). Each application of lotion amounted to about 50 mg.
# At the end of G2-anagen, hair was plucked again from the same dorsal area, and this was used for measurement of: • i) weight of hair per unit area of skin, • ii) length of hair, and • iii) diameter of hair measured microscopically.
# This procedure was employed to compare the effect of topical application to the rat model of a known hair growth promoter, namely minoxidil and a test material as used in accordance with the invention, namely tri-n-butyl citrate.
# In this experiment minoxidil was employed at a concentration of 2% by weight in 65% v/v aqueous ethanol and tri-n-butyl citrate was employed at a concentration of 5% by weight in a vanishing cream base.
# [1] = end of G-2 anagen, versus control (vanishing cream base)
Compound,LENGTH (length of hair) [mm],WT/AREA (weight of hair per unit area of skin) [mg/cm2],"hair diameter, comparison in words [1]","length of hair, comparison in words [1]","weight of plucked hair per unit area, comparison in words [1]"
"CCCCOC(=O)CC(O)(CC(=O)OCCCC)C(=O)OCCCC [TBC, tri-n-butyl citrate]",10.74 ± 1.16,17.24 ± 0.97,similar,marked increase over both control and minoxidil,marked increase over the control
"Nc1cc(N2CCCCC2)nc(N)[n+]1[O-] [Minoxidil, reference compound]",8.85 ± 0.42,16.27 ± 0.97,–,–,–
